Measurements taken from patent US20220259265A1, “Inhibitors and Use Thereof in Cancer Treatment” (The University of Sydney, priority 2019, published 2022).
Ends that are not written are not given here. Peptide text beside a SMILES is read from it. * marks the point of attachment. 5TAMRA = CN(C)c1ccc2c(c1)Oc1cc(N(C)C)ccc1C21OC(=O)c2cc(C(=O)*)ccc21

Assays:
[1] = tested on: γH2AX signal in MDA-MB-468 cells; assay: γH2AX response to etoposide after peptide incubation (blot), MDA-MB-468 cells; type: cell-based, human; conditions: 16 h incubation with peptide at 10 μM, 25 μM etoposide
Description: (§1) An elevated γH2AX signal is indicative of sustained DNA damage (i.e. inhibition of DNA repair) compared to the control cells. Peptide #66 was also evaluated in the presence of PARP inhibitors, veliparib (ABT-888) and olaparib (Lynparza). In FIG. 5e and FIG. 5f, the γH2AX signal in the absence of peptide #66 is expressed as 100%, and bars represent the ratio of γH2AX signal in the presence of the peptide, to that in its absence.

[2] = tested on: γH2AX signal in HCC1806 cells; assay: γH2AX response to etoposide after peptide incubation (blot), HCC1806 cells; type: cell-based, human; conditions: 16 h incubation with peptide at 10 μM, 25 μM etoposide
Description: as §1

[3] = tested on: IGFBP-3-NONO complexes in MDA-MB-468 cells; assay: Proximity ligation assay (PLA), MDA-MB-468 cells; type: cell-based, human
Description: (§2) PLA was performed using the Duolink Detection Kit (Olink Bioscience Uppsala, Sweden) as previously described (Lin M Z et al., Oncogene, 2014, 33, 85-96). Briefly, cells were grown on 8-mm glass coverslips to 50% confluency, treated, and prepared for microscopy by fixing, permeabilizing and blocking. Coverslips were incubated with primary antibody pairs (raised in different species) targeting the proteins under investigation overnight at 4° C. […]; NONO (as above) and […]; IGFBP-3 (as above), 1:100. This was followed by incubation with PLA probes MINUS and PLUS for 1 h at 37° C., probe ligation for 30 min at 37° C. and amplification over 100 min at 37° C. Interactions were detected as amplified far-red signals using a Leica TCS SP5 confocal microscope (Leica Microsystems, Wetzlar, Germany) and quantitated using Image J software.

[4] = tested on: IGFBP-3-NONO complexes in HCC1806 cells; assay: Proximity ligation assay (PLA), HCC1806 cells; type: cell-based, human
Description: as §2

[5] = tested on: DNA end-joining activity in MDA-MB-468 cells; assay: DNA end-joining assay, nuclear extracts of treated MDA-MB-468 cells; type: cell-based, human
Description: (§3) Nuclear extraction and end-joining assay was performed as previously described (Andrin C et al., J Blot Chem., 2004, 279, 25017-25023; Andrin C et al., Nucleus., 2012, 3, 384-395) with slight modifications. […] After isolation of nuclei by centrifugation through a buffer containing 300 mM sucrose, the washed nuclear pellet was extracted into high-salt buffer (20 mM Hepes, pH 7.5, 25% glycerol, 420 mM NaCl, 0.2 mM EDTA, 1.5 mM MgCl2) for 30 min on ice, and insoluble material was removed by centrifugation. The soluble nuclear extract was used in the end-joining assay. Restriction enzymes NheI and EcoRI (New England Biolabs, Ipswich, Mass., USA) were used to digest a EGFP-C1 plasmid (Clontech, Mountain View, Calif., USA) to generate a DNA fragment of 4 kb with non-homologous ends. The linearized plasmid was separated by 0.8% agarose gel electrophoresis, purified using a DNA gel extraction kit (Qiagen), and used as the substrate for end-joining assays. Nuclear extract (2 μg) was mixed with end-joining assay buffer (7.5 mM Tris pH 8.0, 0.2 mM CaCl2, 10 mM MgCl2, 50 mM KCl, 1.2 mM ATP and 0.5 mM DTT) and allowed to stand for 30 min at 22° C. Repair was initiated by adding 100 ng of prepared linearized DNA and incubated at 25° C. for 30 min, stopped by the addition of 0.5 M EDTA, 0.5% SDS and 10 mg/mL Proteinase K. DNA bands were separated on a 0.7% agarose gel, stained with SYBR Gold (Life Technologies), and visualized on a BioRad ChemiDoc imaging system.

[6] = tested on: HCC1806 breast cancer cells; assay: Nuclear uptake of 5-TAMRA-labelled peptide, confocal microscopy (fixed and live cell imaging); type: cell-based, human
Description: The peptide was synthesised with the fluorescent dye 5-TAMRA (5-carboxytetramethyl-rhodamine) covalently bound at its amino-terminus. Since under some circumstances the fixation of cells prior to imaging may introduce artefacts, experiments were performed to detect the localisation of the peptide both with and without fixation of the cells. […] At the indicated time points, cells were washed three times with PBS, fixed with 4% paraformaldehyde for 15 min, washed three times and mounted on slides using ProLong Gold Antifade Reagent containing the nuclear stain DAPI (Life Technologies). Confocal fluorescence images were captured with a Leica TCS SP5 confocal laser scanning microscope (Leica Microsystems, Wetzlar, Germany). Live cell imaging (FIG. 8b): HCC1806 cells were plated in an 8-well chamber slide (Nunc Lab-Tek, Sigma Aldrich); 0.1 mg/mL Hoechst nuclear stain (Life Technologies) was added to the cells for 15 mins and imaged (0 min time point) using Leica TCS SP5 confocal microscope. […] Images were taken at the times indicated.

[7] = biological target: T1, IGFBP-3 complexes with NONO (NONO/SFPQ) in MDA-MB-468 cells (Homo sapiens, UniProt Q15233); assay: Co-immunoprecipitation with IGFBP-3-Fab beads and western blotting, MDA-MB-468 cells; type: cell-based; conditions: 24 h preincubation with veliparib 20 μM or olaparib 10 μM prior to 20 μM etoposide
T1 construct: endogenous in cells; host or cells: MDA-MB-468; HCC1806
T1 sequence (Q15233 1-471): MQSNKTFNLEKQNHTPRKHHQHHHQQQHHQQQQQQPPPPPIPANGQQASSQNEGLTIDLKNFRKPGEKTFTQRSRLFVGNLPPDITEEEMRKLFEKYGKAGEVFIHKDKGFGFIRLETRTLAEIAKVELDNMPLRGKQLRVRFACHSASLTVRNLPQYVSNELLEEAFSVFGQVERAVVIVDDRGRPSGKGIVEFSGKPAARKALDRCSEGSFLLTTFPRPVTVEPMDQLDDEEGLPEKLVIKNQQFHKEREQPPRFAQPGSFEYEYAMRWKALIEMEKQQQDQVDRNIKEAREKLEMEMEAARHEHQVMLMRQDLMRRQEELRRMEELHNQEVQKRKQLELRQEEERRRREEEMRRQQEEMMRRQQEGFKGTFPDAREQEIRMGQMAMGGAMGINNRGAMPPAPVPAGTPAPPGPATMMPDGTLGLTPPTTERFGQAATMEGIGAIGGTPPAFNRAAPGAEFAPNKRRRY
T1 sequence (P23246 1-707 partner): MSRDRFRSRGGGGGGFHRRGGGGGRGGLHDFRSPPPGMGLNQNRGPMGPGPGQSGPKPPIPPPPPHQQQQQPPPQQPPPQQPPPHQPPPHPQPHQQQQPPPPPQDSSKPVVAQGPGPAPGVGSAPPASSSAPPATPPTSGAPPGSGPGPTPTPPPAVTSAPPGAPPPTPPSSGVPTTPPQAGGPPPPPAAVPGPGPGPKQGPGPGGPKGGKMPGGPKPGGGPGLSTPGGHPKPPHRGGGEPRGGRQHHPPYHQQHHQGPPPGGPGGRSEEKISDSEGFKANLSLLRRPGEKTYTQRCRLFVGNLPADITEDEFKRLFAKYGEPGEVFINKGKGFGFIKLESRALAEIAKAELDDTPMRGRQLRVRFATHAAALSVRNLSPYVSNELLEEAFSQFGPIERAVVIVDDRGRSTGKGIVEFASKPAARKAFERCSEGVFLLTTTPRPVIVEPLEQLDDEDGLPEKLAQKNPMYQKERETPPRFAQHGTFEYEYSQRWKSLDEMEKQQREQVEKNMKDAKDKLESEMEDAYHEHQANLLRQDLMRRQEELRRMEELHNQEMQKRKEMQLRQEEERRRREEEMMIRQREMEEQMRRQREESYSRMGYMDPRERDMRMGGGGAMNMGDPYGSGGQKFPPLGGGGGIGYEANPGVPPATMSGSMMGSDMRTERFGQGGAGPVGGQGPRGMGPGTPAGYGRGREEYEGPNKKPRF
Description: (§4) The human basal-like triple negative breast cancer (TNBC) cell lines MDA-MB-468 and HCC1806 were obtained from ATCC, Manassas, Va. and maintained in RPMI 1640 medium containing 5% FBS and 10 μg/mL bovine insulin under standard conditions. Cryopreserved stocks were established within 1 month of receipt, and fresh cultures for use in experiments were established from these stocks every 2 to 3 months.

[8] = tested on: γH2AX (DNA double-strand breaks) in MDA-MB-468 cells; assay: γH2AX immunofluorescence, MDA-MB-468 cells; type: cell-based, human; conditions: olaparib 10 μM or veliparib 20 μM pre-treatment, etoposide 1 h (T0), 4 h recovery (T4)
Description: as §4
(§5) Cells grown on 8-mm glass coverslips were washed three times with PBS, fixed with 4% paraformaldehyde for 15 min, permeabilized with 0.2% Triton X-100 for 5 min and blocked with 2% BSA for 1 h. Cells were then incubated with rabbit anti-phospho-histone γH2A.X (Ser139) (1:200; Cell Signaling Technology, #9718) overnight at 4° C., washed, and further incubated with anti-rabbit secondary antibody, tagged with Alexa Fluor 594 (Life Technologies, Carlsbad, Calif., USA). For controls, cells were treated with isotype-matched IgG from the same species. Slides were mounted using ProLong Gold Antifade Reagent (Life Technologies). […] Data were calculated from three replicate experiments.

[9] = tested on: γH2AX (DNA double-strand breaks) in HCC1806 cells; assay: γH2AX immunofluorescence, HCC1806 cells; type: cell-based, human; conditions: olaparib 10 μM or veliparib 20 μM pre-treatment, etoposide 1 h (T0), 4 h recovery (T4)
Description: as §4, §5

[10] = tested on: DNA end-joining activity in HCC1806 cells; assay: DNA end-joining assay, nuclear extracts of treated HCC1806 cells; type: cell-based, human
Description: as §3, with “Repair was initiated by adding 100 ng of prepared linearized DNA and incubated at 25° C. for 30 min, stopped by the addition of 0.5 M EDTA, 0.5% SDS and 10 mg/mL Proteinase K. DNA bands were separated on a 0.7% agarose gel, stained with SYBR Gold (Life Technologies), and visualized on a BioRad ChemiDoc imaging system.” left out

[11] = tested on: HCC1806 breast cancer cells; assay: 14-day colony formation or clonogenic survival assay; type: cell-based, human; conditions: veliparib 5 μM
Description: HCC1806 cells (500 cells/well) were plated in 6-well plates for 24 h prior to being treated with or without 5 μM of PARPi (veliparib) for a further 24 h. […] Colonies were washed with PBS and stained using 0.5% Crystal Violet (Sigma Aldrich) in 20% methanol for 30 min prior to rinsing with water. Colonies, defined as clusters of at least 30 cells, were imaged and counted with an AID vSpot Spectrum imager (AutoImmun Diagnostika GmbH, Strassberg, Germany).
The 14-day colony formation or clonogenic survival assay measures the ability of cells to survive 2 days of chemotherapy-induced DNA damage, and form colonies of at least 30 cells over the next 12 days. […] The purpose was to find conditions under which the cells become more sensitive to this low dose of chemotherapy.

[12] = 24 h preincubation with 20 μM veliparib, 2 h after 20 μM etoposide
[13] = 20 μM veliparib or 10 μM olaparib 24 h, then 20 μM etoposide 2 h

TLNHLKFLNVLS [compound 65]
γH2AX signal (sustained DNA damage) compared to no peptide [1]: sustained γH2AX signal
γH2AX signal (sustained DNA damage) compared to no peptide [2]: sustained γH2AX signal

COc1cc([C@@H]2c3cc4c(cc3[C@@H](O[C@@H]3O[C@@H]5CO[C@@H](C)O[C@H]5[C@H](O)[C@H]3O)[C@H]3COC(=O)[C@H]23)OCO4)cc(OC)c1O [etoposide]
Time of peak interaction between IGFBP-3 and NONO (PLA) ([3]; 20 μM etoposide, 0 to 4 h): ~2 h
Time of peak interaction between IGFBP-3 and NONO (PLA) ([4]; 20 μM etoposide, 0 to 4 h): ~2 h
Activity in direct DNA end-joining assay ([5]; 20 μM etoposide 2 h, nuclear extracts (FIG. 4e)): increased activity

HLKFLNVLSPRG [Peptide #66]
Nuclear uptake of peptide ([6]; 5-TAMRA-labelled peptide, fixed and live cell imaging): rapid nuclear uptake

C[C@]1(c2nc3c(C(N)=O)cccc3[nH]2)CCCN1 [veliparib]
Effect on IGFBP-3 complexes with NONO (immunoblotting after coIP) [7]: abolished
Effect on increase in IGFBP-3-NONO complexes (PLA) [3, 12]: abolished
Effect on increase in IGFBP-3-NONO complexes (PLA) [4, 12]: abolished
Effect on loss of γH2AX signal over 4 h recovery (DSB repair) [8]: significantly prevented the loss of γH2AX signal
Effect on loss of γH2AX signal over 4 h recovery (DSB repair) [9]: significantly prevented the loss of γH2AX signal
inhibition at 20 µM ([5]; Homo sapiens, MDA-MB-468): ~50%
inhibition at 20 µM ([10]; Homo sapiens, HCC1806): ~50%
Inhibition of cell survival (colony formation) ([11]; cells exposed to 100 nM etoposide): about one-third
Inhibition of cell survival (colony formation) ([11]; in the absence of etoposide): about one-third

MEDTLNHLKFLN [compound 64]
γH2AX signal (sustained DNA damage) compared to no peptide [1]: low γH2AX signal
γH2AX signal (sustained DNA damage) compared to no peptide [2]: low γH2AX signal

CC(C)C[C@H](NC(=O)[C@H](Cc1c[nH]cn1)NC(=O)c1ccc2c(c1)C(=O)OC21c2ccc(N(C)C)cc2Oc2cc(N(C)C)ccc21)C(=O)N[C@@H](CCCCN)C(=O)N[C@@H](Cc1ccccc1)C(=O)N[C@@H](CC(C)C)C(=O)N[C@@H](CC(N)=O)C(=O)N[C@H](C(=O)N[C@@H](CC(C)C)C(=O)N[C@@H](CO)C(=O)N1CCC[C@H]1C(=O)N[C@@H](CCCNC(=N)N)C(=O)NCC(=O)O)C(C)C [peptide #66 labelled with 5-TAMRA] (5TAMRA-HLKFLNVLSPRG-OH)
Time of peak colocalization of labelled peptide and nuclei ([6]; fixed cell imaging, or 10 μM labelled peptide): 30 min
Association of labelled peptide with cell nuclei ([6]; live cell imaging, 2.5 μM or 10 μM labelled peptide): associated with cell nuclei at 40 and 60 min, and even more so after 90 min

O=C(c1cc(Cc2n[nH]c(=O)c3ccccc23)ccc1F)N1CCN(C(=O)C2CC2)CC1 [olaparib]
Effect on loss of γH2AX signal over 4 h recovery (DSB repair) [8]: significantly prevented the loss of γH2AX signal
Effect on loss of γH2AX signal over 4 h recovery (DSB repair) [9]: significantly prevented the loss of γH2AX signal
Inhibition of end joining activity [5, 13]: approximately 50%
Inhibition of end joining activity [10, 13]: approximately 50%
